How the values were obtained:
IRAK4 kinase = IRAK4 kinase (Homo sapiens (Human), UniProt Q9NWZ3); assay: IRAK4 kinase inhibitory activity assay (mobility shift assay, Km ATP); type: biochemical; conditions: MSA, ATP 37 μM (Km ATP)
Method: The inhibitory activity (IC50) of the compound on IRAK4 kinase under Km ATP was detected by mobility shift assay (MSA). Ten drug concentration gradients were set (initial concentration 1 μM, 3-fold dilution, 2 duplicate wells per concentration). […] After incubation at 28° C. for a period of time, 10 μL of termination buffer was added to terminate the reaction. The conversion rate data was read with Caliper, and then the conversion rate was converted into inhibition rate data. According to the inhibition rate data of each concentration, the IC50 of half inhibitory concentration was calculated by Logit method (Table 3).

[1] = system: TNF-α secretion in THP-1 cells; assay: Inhibition of LPS-stimulated TNF-α secretion in THP-1 cells (ELISA); type: cell-based; conditions: Homo sapiens, LPS 1 μg/mL, 4.5 hours
Method: TNF-α is a key cytokine involved in the inflammatory process of the listed autoimmune disease, such as rheumatoid arthritis, psoriatic arthritis, ankylosing spondylitis, psoriasis, Crohn's disease, ulcerative colitis, etc. In this test, TNF-α secretion was triggered by incubation with bacterial lipopolysaccharides (LPS). […] The 96-well plate was rotated at 2000 rpm for 5 minutes, and then 50 μL of supernatant was taken. The content of TNF-α in the supernatant was determined by human ELISA kit, and IC50 value of the compound was calculated by XL-Fit (table 4).

hERG potassium channel = hERG potassium channel (Homo sapiens (Human), UniProt Q12809); assay: cell-based; conditions: human
Excerpt: The rapid activation of delayed rectifier outward potassium current (IKr) in humans is mainly mediated by hERG ion channel and participates in human myocardial cell repolarization. Drug blockade of this current will lead to the appearance of QT interval prolongation syndrome in clinical practice, which can easily induce acute arrhythmia and even sudden death.

in vivo [2] = conditions: rat, po; for half-life: SD, in vivo; for AUC(0-t) / Cmax / Tmax: plasma, 25 mg/kg
Method: SD rats were used as the test animals.
Standard curve and preparation and processing of quality control samples:
Stock solution was diluted with 50% acetonitrile-water to obtain standard working solutions of 0.04, 0.10, 0.20, 0.40, 1.00, 2.00, 4.00 μg/mL, and quality control working solutions of 0.10, 1.00, 3.00 μg/mL. […] 200 μL of acetonitrile (containing 5 ng/mL of the internal standard loratadine) was added. After the vortex oscillation for 3 minutes, the solutions were centrifuged at 15000 rpm at 4° C. for 15 minutes. 100 μL of the supernatant was taken for LC-MS/MS analysis. WinNonlin ® 8.0 was used to calculate the experimental results.

in vivo [3] = conditions: ICR, mouse, po
Method: On the day of administration, observations were made approximately 0.5, 1, 2, 4, and 6 hours after the first administration. During day 2 to day 6 of the observation period, observations were made twice a day, once in the morning and once in the afternoon.
Observations included but not limited to: general conditions, behavioral activities, gait and posture, eyes, mouth, nose, gastrointestinal tract, skin hair and urogenital tract.
Weight data were expressed as mean ±standard deviation. Levene's test and one-way analysis of variance were used for comparison between groups. If there was a difference, Dunnet t test was then used.
The maximum tolerated dose refers to the dose administered when the animal was dying.

Chain of IRAK4 kinase (Q9NWZ3 whole entry): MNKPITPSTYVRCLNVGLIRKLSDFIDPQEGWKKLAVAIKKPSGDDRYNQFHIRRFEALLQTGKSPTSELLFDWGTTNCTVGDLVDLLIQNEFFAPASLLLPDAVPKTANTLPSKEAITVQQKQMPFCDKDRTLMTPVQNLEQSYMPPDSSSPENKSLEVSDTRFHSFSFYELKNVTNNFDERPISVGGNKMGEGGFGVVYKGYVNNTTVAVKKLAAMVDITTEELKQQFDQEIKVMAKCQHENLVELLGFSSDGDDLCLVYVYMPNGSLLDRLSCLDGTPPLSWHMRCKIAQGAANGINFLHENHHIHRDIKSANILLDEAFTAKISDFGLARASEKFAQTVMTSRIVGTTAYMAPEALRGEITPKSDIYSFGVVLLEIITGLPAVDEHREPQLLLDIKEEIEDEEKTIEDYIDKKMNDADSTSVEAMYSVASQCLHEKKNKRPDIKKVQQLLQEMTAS
Chain of hERG potassium channel (Q12809 whole entry): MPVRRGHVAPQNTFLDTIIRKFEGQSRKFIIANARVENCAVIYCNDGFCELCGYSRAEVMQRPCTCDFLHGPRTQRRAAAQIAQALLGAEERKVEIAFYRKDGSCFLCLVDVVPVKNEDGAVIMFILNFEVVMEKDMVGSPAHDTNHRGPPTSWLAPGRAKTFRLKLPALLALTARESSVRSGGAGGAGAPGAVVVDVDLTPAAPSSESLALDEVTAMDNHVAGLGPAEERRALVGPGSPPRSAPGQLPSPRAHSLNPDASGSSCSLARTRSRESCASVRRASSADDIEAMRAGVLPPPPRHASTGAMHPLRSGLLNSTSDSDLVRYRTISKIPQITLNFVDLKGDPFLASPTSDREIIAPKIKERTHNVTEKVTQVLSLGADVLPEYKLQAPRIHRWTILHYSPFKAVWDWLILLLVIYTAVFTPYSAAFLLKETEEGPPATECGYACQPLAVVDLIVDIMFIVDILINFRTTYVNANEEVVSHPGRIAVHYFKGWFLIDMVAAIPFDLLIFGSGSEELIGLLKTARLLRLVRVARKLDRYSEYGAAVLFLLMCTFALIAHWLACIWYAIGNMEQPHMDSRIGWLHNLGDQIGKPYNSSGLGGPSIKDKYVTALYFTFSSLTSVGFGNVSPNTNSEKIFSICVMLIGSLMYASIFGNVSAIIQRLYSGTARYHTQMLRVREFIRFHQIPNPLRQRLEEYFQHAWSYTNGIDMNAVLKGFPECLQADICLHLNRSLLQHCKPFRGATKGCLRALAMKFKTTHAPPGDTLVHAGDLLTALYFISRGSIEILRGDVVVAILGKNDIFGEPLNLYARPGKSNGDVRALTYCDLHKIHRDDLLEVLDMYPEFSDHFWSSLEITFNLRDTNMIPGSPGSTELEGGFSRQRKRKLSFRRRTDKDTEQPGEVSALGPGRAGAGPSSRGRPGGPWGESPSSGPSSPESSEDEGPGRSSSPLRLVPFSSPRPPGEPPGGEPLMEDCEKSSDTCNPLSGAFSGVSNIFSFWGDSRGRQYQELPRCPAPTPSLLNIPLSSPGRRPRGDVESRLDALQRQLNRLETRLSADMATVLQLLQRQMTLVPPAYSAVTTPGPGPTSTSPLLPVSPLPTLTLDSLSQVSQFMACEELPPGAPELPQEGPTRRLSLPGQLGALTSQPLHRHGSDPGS

SMILES: COc1cc2nn(CCS(=N)(=O)c3ccncc3)cc2cc1NC(=O)c1cnn2cccnc12 (centres unmarked) [Compound I-21]
- IC50 (IRAK4 kinase): 0.5 nM
- IC50 [1]: 0.9 nM
- Inhibition rate (%) of hERG current (hERG potassium channel; 5 μM): 2.3%
- Inhibition rate (%) of hERG current (hERG potassium channel; 50 μM): 2.1%
- Inhibition rate (%) of hERG current (hERG potassium channel; 500 μM): 29.7%
- half-life (in vivo [2]): 312 min
- AUC(0-t) (in vivo [2]): 9400 ng·h/mL
- Cmax (in vivo [2]): 1520 ng/mL
- Tmax (in vivo [2]): 5.8 h
- MTD at 6 days (in vivo [3]): > 2000 mg/kg

SMILES: CC(C)(O)c1cc2nn(CCS(=N)(=O)c3ncnc4ccccc34)cc2cc1NC(=O)c1cccc(C(F)(F)F)n1 (centres unmarked) [Compound I-34]
- IC50 (IRAK4 kinase): 0.5 nM
- IC50 [1]: 0.5 nM
- Inhibition rate (%) of hERG current (hERG potassium channel; 5 μM): -1.6%
- Inhibition rate (%) of hERG current (hERG potassium channel; 50 μM): 1.0%
- Inhibition rate (%) of hERG current (hERG potassium channel; 500 μM): 11.5%
- half-life (in vivo [2]): 318 min
- AUC(0-t) (in vivo [2]): 8000 ng·h/mL
- Cmax (in vivo [2]): 1630 ng/mL
- Tmax (in vivo [2]): 5.5 h
- MTD at 6 days (in vivo [3]): > 2000 mg/kg

SMILES: COc1cc2nn(CCS(=N)(=O)c3ccccc3)cc2cc1NC(=O)c1cccc(C(F)(F)F)n1 (centres unmarked) [Compound I-1]
- IC50 (IRAK4 kinase): 0.3 nM
- IC50 [1]: 0.5 nM
- Inhibition rate (%) of hERG current (hERG potassium channel; 5 μM): -1.0%
- Inhibition rate (%) of hERG current (hERG potassium channel; 50 μM): 2.3%
- Inhibition rate (%) of hERG current (hERG potassium channel; 500 μM): 15.6%
- half-life (in vivo [2]): 300 min
- AUC(0-t) (in vivo [2]): 8330 ng·h/mL
- Cmax (in vivo [2]): 1600 ng/mL
- Tmax (in vivo [2]): 6.2 h
- MTD at 6 days (in vivo [3]): > 2000 mg/kg

SMILES: CC(C)(O)c1cc2nn(CCS(=N)(=O)c3ccnc4ccccc34)cc2cc1NC(=O)c1cccc(C(F)(F)F)n1 (centres unmarked) [Compound I-10]
- IC50 (IRAK4 kinase): 1.1 nM
- IC50 [1]: 1 nM
- Inhibition rate (%) of hERG current (hERG potassium channel; 5 μM): 0.1%
- Inhibition rate (%) of hERG current (hERG potassium channel; 50 μM): 0.9%
- Inhibition rate (%) of hERG current (hERG potassium channel; 500 μM): 20.3%
- half-life (in vivo [2]): 282 min
- AUC(0-t) (in vivo [2]): 9000 ng·h/mL
- Cmax (in vivo [2]): 1510 ng/mL
- Tmax (in vivo [2]): 6.3 h
- MTD at 6 days (in vivo [3]): > 2000 mg/kg

SMILES: COc1cc2nn(CCS(=N)(=O)c3ccncc3)cc2cc1NC(=O)c1cccc(C(F)(F)F)n1 (centres unmarked) [Compound I-5]
- IC50 (IRAK4 kinase): 0.4 nM
- IC50 [1]: 0.7 nM
- Inhibition rate (%) of hERG current (hERG potassium channel; 5 μM): 0.0%
- Inhibition rate (%) of hERG current (hERG potassium channel; 50 μM): -1.0%
- Inhibition rate (%) of hERG current (hERG potassium channel; 500 μM): 13.4%
- half-life (in vivo [2]): 306 min
- AUC(0-t) (in vivo [2]): 8280 ng·h/mL
- Cmax (in vivo [2]): 1400 ng/mL
- Tmax (in vivo [2]): 6.2 h
- MTD at 6 days (in vivo [3]): > 2000 mg/kg
